The text below walks through data of US5294725A, “Scopularin” (E. R. Squibb & Sons, Inc., priority 1989, dated 1994).

Values after ≈ are worked out from the molar mass of the structure shown.

Assay [1] has as its target T1, lanosterol demethylase (Candida albicans, UniProt P10613).
T1 construct: endogenous in cells; host or cells: Candida albicans SC5314
Briefly: Radiolabeled metabolic assay of lanosterol demethylase inhibition (14C-acetate, lanosterol accumulation). Format: cell-based. Conditions: Candida albicans SC5314, 1 hour, 30°, TLC autoradiography. The procedure: (§1) The inhibition of lanosterol demethylase was determined by two methods: the spectrophotometric carbon monoxide binding assay of Omura and Sato (J. Biol. Chem. 239:2370-2378, 1964) and by a radiolabeled metabolic assay.
The ability of scopularin and its alcohol to inhibit the lanosterol demethylase of Candida albicans can also be visualized by a metabolic assay. Candida albicans SC5314, was grown overnight at 30° with shaking in the same medium as that used above. Cells were harvested by centrifugation and resuspended in water to give an optical density of 0.3 at 660 nm. 750 μl of this cell suspension, 300 μl of a medium containing 0.35 g Difco yeast nitrogen base without amino acids, 1 g glucose and distilled water to 10 ml, 100 μl of test material and distilled water were combined to give a final volume of 1.425 ml. This was incubated for 15 minutes at 30° C. with shaking, then 3 μCi ^14 C-acetate was added and continued to incubate for 1 hour. Cells were harvested by centrifugation and extracted with 2×0.5 ml methanol; centrifuged, decanted supernate and repeated the extraction with […] methanol-benzene (1:1). Centrifuged, decanted; combined supernates, dried and resuspended in 100 μl chloroform-methanol (1:1). The aliquots were spotted onto silica gel 60 (Merck) plates and developed chromatographically in a solvent containing dichloromethane-acetone (60:1). […]

The next assay relates to Candida albicans. In words: Agar dilution MIC assay. It counts as cell-based. The procedure:
(§2) The following methodology was used to determine the miniumum inhibitory concentration (hereinafter referred to as MIC) of scopularin.
(§3) The aerobic test organisms were grown in approximately 15-20 ml of Antibiotic Assay Broth (Difco) by inoculating (in tubes) the broth with a loopful of the organism from a BHI (Difco) agar slant. The inoculated tubes were incubated at 37° C. for 18 to 24 hours. These cultures are assumed to contain 10^7 colony forming units (CFU) per ml and the cultures were diluted 1:100 to give a final inoculum level of 10^5 CFU dilutions were made with Yeast Beef Broth (Difco).
(§4) Scopularin was dissolved in an appropriate diluent at a concentration of 1,000 μg/ml. Two-fold dilutions were made in Yeast Beef Broth (Difco), resulting in a range from 1000 μg/ml to 0.5 μg/ml. 1.5 ml of each dilution was placed into individual petri dishes to which 13.5 ml of K-10 agar was added. The composition of K-10 agar is:
(§5) The final drug concentration in the agar ranged from 100 μg/ml to 0.05 μg/ml. Organism growth control plates containing agar only were prepared and inoculated before and after the test plates. The organisms were applied to the agar surface of each plate with a Denyl Multipoint Inoculator (which delivers approximately 0.001 ml of each organism) resulting in a final inoculum of 10^4 CFU on the agar surface.
(§6) The plates were incubated at 37° C. for 18 hours and the MICs determined. The MIC is the lowest concentration of compound inhibiting growth of the organism.
In general terms: In agar dilution the substance is mixed into plates at graded concentrations.

The subject of the next assay is Candida krusei. Briefly: Agar dilution MIC assay. It counts as cell-based. Conditions: Pichia kudriavzevii, SC2967, 18 h. How it is done: as §2, §3, §4, §5, §6
The target of assay [2] is T1, lanosterol demethylase. In words: Spectrophotometric carbon monoxide binding assay (Omura and Sato). To be noted: Candida albicans SGY677, read-out: 50% inhibition of carbon monoxide binding. How it is done:
as §1
Cells of Candida albicans, SGY677, were grown overnight without shaking at 30° C. in a medium consisting of yeast extract 1% , peptone 2%, glucose 2% and distilled water. Cells were harvested by centrifugation and resuspended in 0.65M mannitol to an optical density at 600 nm of 2.5. At this density 1 ml of cells was equal to 6.7 mg constant dry weight (105° C. for 18 hours).

T1 sequence (P10613 whole entry): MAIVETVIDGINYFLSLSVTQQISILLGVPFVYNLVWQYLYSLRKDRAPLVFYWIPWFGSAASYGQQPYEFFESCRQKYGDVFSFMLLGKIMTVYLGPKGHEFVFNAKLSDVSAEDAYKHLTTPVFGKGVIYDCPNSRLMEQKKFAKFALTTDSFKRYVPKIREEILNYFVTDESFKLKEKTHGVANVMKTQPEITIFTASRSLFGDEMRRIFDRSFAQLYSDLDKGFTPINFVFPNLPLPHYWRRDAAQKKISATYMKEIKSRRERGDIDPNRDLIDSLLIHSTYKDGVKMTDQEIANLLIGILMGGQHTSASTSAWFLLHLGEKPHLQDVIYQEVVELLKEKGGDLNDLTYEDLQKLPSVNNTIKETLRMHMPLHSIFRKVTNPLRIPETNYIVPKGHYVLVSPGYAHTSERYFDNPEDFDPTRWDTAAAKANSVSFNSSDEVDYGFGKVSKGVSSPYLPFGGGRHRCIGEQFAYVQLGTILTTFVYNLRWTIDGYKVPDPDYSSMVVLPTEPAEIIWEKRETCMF

In the case of `CCC/C=C/C=C/C=C(\C)[C@H]1OC[C@@H](C)[C@@H](OC)[C@@H]1OC(=O)CN` (relative stereo) [Scopularin, (2α, 3β, 4α, 5α)-Tetrahydro-4-methoxy-5-methyl-2-(1-methyl-1,3,5-nonatrienyl)-2H-pyran-3-ol, amino-acetate ester], on lanosterol demethylase [1], the “concentration causing accumulation of lanosterol, consistent with inhibition of lanosterol demethylase” value worked out at 360 µM. Moreover, the minimum inhibitory concentration (MIC) in the assay with Candida albicans (SC12, 18 h) is 100 µg/mL (≈ 296 µM); against Candida albicans (SC14, 18 h), 50 µg/mL (≈ 148 µM); in the assay on Candida krusei, 0.4 µg/mL (≈ 1.19 µM).

In the case of `CCCC=CC=CC=C(C)[C@H]1OC[C@@H](C)[C@@H](OC)[C@@H]1O` (relative stereo) [alcohol], the “concentration causing accumulation of lanosterol, consistent with inhibition of lanosterol demethylase” value on lanosterol demethylase [1] came to 14 µM. For the same compound, the IC50 on lanosterol demethylase [2] stood at 14 µM.

Usually MIC stands for the smallest concentration in the dilution series that meets the test's criterion for growth inhibition.
